Results published in ChEMBL document CHEMBL6177945, “Dyad System of BOAHY-BODIPY Conjugates as Novel Photoswitchable Photosensitizers for Photodynamic Therapy” (J Med Chem, 2025).
The source made the active and inactive calls. The calls are words filed in the database; no cut-off is given here.

What was measured:
HeLa [1] = test: Photocytotoxicity against human HeLa cells at 10 uM incubated with compound for 30 mins under 365 nm UV light for 5 mins followed white LED exposure for 10 mins and measured after 20 hrs post-illumination by MTT assay; type: functional, cell-based; conditions: time 20.75 hrs
HeLa [2] = test: Cytotoxicity against human HeLa cells up to 100 uM incubated for 4 hrs by MTT assay; type: toxicity, cell-based
[3] = Induction of type-1 ROS generation in PBS assessed as increase in superoxide anion radical by measuring increase in DHR123 fluorescence intensity at 10 uM irradiated with 450 to 800 nm 40.8 mW cm^-2 light up to 10 mins by DHR123 fluorescence based analysis; type: functional
HeLa [4] = test: Upregulation of ROS generation related proteins in human HeLa cells under white light irradiation exposure by GO analysis; type: functional, cell-based
HeLa [5] = test: Upregulation of cellular redox metabolism related proteins in human HeLa cells under white light irradiation exposure by GO analysis; type: functional, cell-based
HeLa [6] = test: Photocytotoxicity against human HeLa cells at 10 uM incubated with compound for 30 mins under 365 nm UV light for 1 mins followed white LED exposure for 2 mins and measured after 20 hrs post-illumination by MTT assay; type: functional, cell-based; conditions: time 20.55 hrs
[7] = Induction of type-II ROS generation in PBS assessed as increase in singlet oxygen by measuring ABDA absorption at 20 uM irradiated with 450 to 800 nm 40.8 mW cm^-2 light up to 10 mins by ABDA based UV-vis absorption spectrophotometric analysis; type: functional
HeLa [8] = test: Photocytotoxicity in human HeLa cells at 10 uM incubated for 30 mins irradiated with 450 to 800 nm 40.8 mW cm^-2 white LED light and measured after 20 hrs by MTT assay; type: functional, cell-based; conditions: time 20.5 hrs
[9] = Induction of type-1 ROS generation in PBS assessed as increase in superoxide anion radical by measuring increase in DHR123 fluorescence intensity under white lamp exposure for 10 mins and UV light for 15 mins followed by white lamp exposure for another 10 mins by DHR123 fluorescence based analysis; type: functional; conditions: time 35.0 min
[10] = Induction of type-II ROS generation in PBS assessed as increase in singlet oxygen by measuring ABDA absorption under white lamp exposure for 10 mins and UV light for 15 mins followed by white lamp exposure for another 10 mins by ABDA based UV-vis absorption spectrophotometric analysis; type: functional; conditions: time 35.0 min
HeLa [11] = test: Photocytotoxicity against human HeLa cells at 10 uM incubated with compound for 30 mins under 365 nm UV light for 1 mins and measured after 20 hrs post-illumination by MTT assay; type: functional, cell-based; conditions: time 20.51 hrs
[12] = Phototoxicity in human HeLa cells assessed as cell viability under white LED light for 10 mins; type: functional, cell-based; conditions: light or radiation study

CC1=C(/C=[N+]2\N=C(c3ccccc3)O[B-]2(F)F)C(C)=[N+]2C1=C(c1ccccc1)c1c(C)c(/C=[N+]3\N=C(c4ccccc4)O[B-]3(F)F)c(C)n1[B-]2(F)F
Activity (HeLa [1]): Active | Activity (HeLa [2]): Non-toxic | Activity [3]: Active

COc1ccc(C2=N/[N+](=C\c3c(C)c4n(c3C)[B-](F)(F)[N+]3=C(C)C(I)=C(C)C3=C4c3ccccc3)[B-](F)(F)O2)cc1
Activity (HeLa [4]): Active | Activity (HeLa [5]): Active | Activity (HeLa [6]): Active | Activity [3]: Active

COc1ccc(C2=N/[N+](=C\c3c(C)c4n(c3C)[B-](F)(F)[N+]3=C(C)C=C(C)C3=C4c3ccccc3)[B-](F)(F)O2)cc1
Activity [7]: Not active; Slight Changes In Abda Absorption Observed | Activity (HeLa [8]): Active | Activity (HeLa [2]): Non-toxic | Activity [3]: Active

CC1=C(I)C(C)=[N+]2C1=C(c1ccccc1)c1c(C)c(/C=[N+]3\N=C(c4ccc([N+](=O)[O-])cc4)O[B-]3(F)F)c(C)n1[B-]2(F)F
Activity [3]: Active

CC1=CC(C)=[N+]2C1=C(c1ccccc1)c1c(C)c(/C=[N+]3\N=C(c4ccccc4)O[B-]3(F)F)c(C)n1[B-]2(F)F
Activity [7]: Not active; Slight Changes In Abda Absorption Observed | Activity (HeLa [8]): Active | Activity (HeLa [2]): Non-toxic | Activity [3]: Active

CC1=CC(C)=[N+]2C1=C(c1ccccc1)c1c(C)c(/C=[N+]3\N=C(c4ccc([N+](=O)[O-])cc4)O[B-]3(F)F)c(C)n1[B-]2(F)F
Activity [7]: Not active; Slight Changes In Abda Absorption Observed | Activity (HeLa [2]): Non-toxic | Activity [3]: Active

CC1=CC(C)=[N+]2C1=C(c1ccccc1)c1c(C)c(/C=[N+]3/N=C(c4ccc([N+](=O)[O-])cc4)O[B-]3(F)F)c(C)n1[B-]2(F)F
Activity (HeLa [1]): Active

COc1ccc(C2=N/[N+](=C\C3=C(C)C4=C(c5ccccc5)c5c(C)c(/C=[N+]6\N=C(c7ccc(OC)cc7)O[B-]6(F)F)c(C)n5[B-](F)(F)[N+]4=C3C)[B-](F)(F)O2)cc1
Activity (HeLa [1]): Active | Activity (HeLa [2]): Non-toxic

CC1=CC(C)=[N+]2C1=C(c1ccccc1)c1c(C)c(/C=[N+]3/N=C(c4ccccc4)O[B-]3(F)F)c(C)n1[B-]2(F)F
Activity (HeLa [1]): Active | Activity [9]: Active | Activity [10]: Active

COc1ccc(C2=N/[N+](=C/c3c(C)c4n(c3C)[B-](F)(F)[N+]3=C(C)C=C(C)C3=C4c3ccccc3)[B-](F)(F)O2)cc1
Activity (HeLa [1]): Active | Activity [9]: Active | Activity [10]: Active

CC1=C(I)C(C)=[N+]2C1=C(c1ccccc1)c1c(C)c(/C=[N+]3\N=C(c4ccccc4)O[B-]3(F)F)c(C)n1[B-]2(F)F
Activity (HeLa [11]): Active | Activity [7]: Active | Activity [3]: Active | IC50 [12]: 3.38 µM
